Results taken from patent US20220389000A1, “PESTICIDALLY ACTIVE CYCLIC AMINE COMPOUNDS” (SYNGENTA CROP PROTECTION AG, priority 2019, published 2022).

Key:
[1] = tested on: Tetranychus urticae (Two-Spotted Spider Mite); experiment: Example B4: Tetranychus urticae (two-spotted spider mite), feeding/contact activity, sprayed bean leaf discs; format: in vivo; conditions: foliar, 192 h, application rate 200 ppm, mixed population (mobile stages) on sprayed bean leaf discs, 8 days after infestation
Protocol: Example B4: Tetranychus urticae (Two-Spotted Spider Mite): Feeding/Contact Activity
Bean leaf discs on agar in 24-well microtiter plates were sprayed with aqueous test solutions prepared from 10'000 ppm DMSO stock solutions. After drying the leaf discs were infested with a mite population of mixed ages. The samples were assessed for mortality on mixed population (mobile stages) 8 days after infestation.

[2] = tested on: Plutella xylostella (Diamond Back Moth); experiment: Example B3: Plutella xylostella (diamond back moth), treated artificial diet, eggs; format: in vivo; conditions: 192 h, application rate 200 ppm, eggs on treated artificial diet, 8 days after infestation, vs untreated, read-out: effect in at least one of the two categories (mortality or growth inhibition)
Protocol: Example B3: Plutella xylostella (Diamond Back Moth)
24-well microtiter plates with artificial diet were treated with aqueous test solutions prepared from 10'000 ppm DMSO stock solutions by pipetting. After drying, Plutella eggs were pipetted through a plastic stencil onto a gel blotting paper and the plate was closed with it. The samples were assessed for mortality and growth inhibition in comparison to untreated samples 8 days after infestation.
The following compounds gave an effect of at least 80% in at least one of the two categories (mortality or growth inhibition) at an application rate of 200 ppm: […]

| Structure (SMILES) | mortality at 200 ppm [1] | effect (mortality or growth inhibition) at 200 ppm [2] |
| --- | --- | --- |
| Cc1nc(C2CCN(C(=O)c3cc(C#N)c(OCc4ccc(C(F)(F)F)cc4)nc3C(F)(F)F)CC2)no1 [P1.1, 5-[4-(5-Methyl-1,2,4-oxadiazol-3-yl)piperidine-1-carbonyl]-6-(trifluoromethyl)-2-[[4-(trifluoromethyl)phenyl]methoxy]pyridine-3-carbonitrile] | ≥ 80% |  |
| Cc1nc(C2CCN(C(=O)c3cc(C#N)c(OCc4ccc(C(F)(F)F)cc4)nc3C)CC2)no1 [P1.43, 6-Methyl-5-[4-(5-methyl-1,2,4-oxadiazol-3-yl)piperidine-1-carbonyl]-2-[[4-(trifluoromethyl)phenyl]methoxy]pyridine-3-carbonitrile] | ≥ 80% |  |
| Cc1nc(C2CCN(C(=O)c3cc(C#N)c(OCc4ccc(C(F)(F)F)cc4)nc3C(F)F)CC2)no1 [P1.48, 6-(Difluoromethyl)-5-[4-(5-methyl-1,2,4-oxadiazol-3-yl)piperidine-1-carbonyl]-2-[[4-(trifluoromethyl)phenyl]methoxy]pyridine-3-carbonitrile] | ≥ 80% |  |
| N#Cc1cc(C(=O)N2CCN(c3ncc(Cl)cc3Cl)CC2)c(C(F)(F)F)nc1OCc1ccc(C(F)(F)F)cc1 [P2.1, 5-[4-(3,5-dichloro-2-pyridyl)piperazine-1-carbonyl]-6-(trifluoromethyl)-2-[[4-(trifluoromethyl)phenyl]methoxy]pyridine-3-carbonitrile] | ≥ 80% | ≥ 80% |
| CC[S+]([O-])CC1CCN(C(=O)c2cc(C#N)c(OCc3ccc(C(F)(F)F)cc3)nc2C(F)(F)F)CC1 (stereo not drawn) [P3.4, 5-[4-(Ethylsulfinylmethyl)piperidine-1-carbonyl]-6-(trifluoromethyl)-2-[[4-(trifluoromethyl)phenyl]methoxy]pyridine-3-carbonitrile] | ≥ 80% |  |
| Cc1nc(C2CCN(C(=O)c3cc(C#N)c(OCC4CC4(Cl)Cl)nc3C(F)(F)F)CC2)no1 (stereo not drawn) [P4.1, 2-[(2,2-Dichlorocyclopropyl)methoxy]-5-[4-(5-methyl-1,2,4-oxadiazol-3-yl)piperidine-1-carbonyl]-6-(trifluoromethyl)pyridine-3-carbonitrile] | ≥ 80% | ≥ 80% |
| Cc1nc(C2CCN(C(=O)c3cc(C(N)=S)c(OCc4ccc(C(F)(F)F)cc4)nc3C(F)(F)F)CC2)no1 [P6.1, 5-[4-(5-Methyl-1,2,4-oxadiazol-3-yl)piperidine-1-carbonyl]-6-(trifluoromethyl)-2-[[4-(trifluoromethyl)phenyl]methoxy]pyridine-3-carbothioamide] | ≥ 80% |  |
